For assay [1], the system named is K-Ras G12C (NCI-H358 cells). Briefly: Potency assay: pERK in NCI-H358 cells. The assay is classed as cell-based, human. To be noted: Homo sapiens; NCI-H358 cells, 4 hours; read-out: pERK EC50 (H358 KRAS G12C). In a few lines:
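Cells plated the day before were exposed for 4 h at 37° C, 5% CO2 to a 10-point, 3-fold DMSO dilution series (10 mM top stock), in duplicate. Phospho-ERK was read by AlphaLISA SureFire Ultra or by In-Cell Western with DRAQ5 DNA stain, and IC50 came from a 4-parameter sigmoidal fit.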

Assay [2] concerns NCI-H358 (K-Ras G12C). Briefly: CellTiter-Glo cell viability assay, NCI-H358. The assay is classed as cell-based, human. To be noted: Homo sapiens, NCI-H358, 120 h, 5-day treatment; read-out: H358 Cell Viability assay data (K-Ras G12C, IC50). In a few lines:
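Luminescent CellTiter-Glo read-out on day 5 after compound exposure; signal expressed as percent of mean DMSO control; four-parameter logistic fit gives the value.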

For assay [3], the target named is K-Ras G12C(GMP-PNP) binding to BRAF RBD (Homo sapiens (Human), UniProt P01116+P62937, G12C). The assay can be described thus: Disruption of BRAF RBD interaction with K-Ras (FRET / MOA assay), K-Ras G12C. The assay is classed as biochemical. Particulars: read-out: KRAS G12C FRET IC50. In a few lines: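 TR-FRET readout: after 3 h compound incubation at 25 °C, anti-His Eu and anti-GST allophycocyanin (10 and 50 nM final) added for a further 1.5 h. Dilution series was 10-point, 3-fold, top 30 μM final. Ras–cyclophilin A ternary complex formation blocks the BRAF RBD interaction; IC50 derived from reduced FRET ratio relative to DMSO.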
K-Ras G12C(GMP-PNP) binding to BRAF RBD, sequence (P01116 other isoform, or with tags, fused parts or gaps G12C): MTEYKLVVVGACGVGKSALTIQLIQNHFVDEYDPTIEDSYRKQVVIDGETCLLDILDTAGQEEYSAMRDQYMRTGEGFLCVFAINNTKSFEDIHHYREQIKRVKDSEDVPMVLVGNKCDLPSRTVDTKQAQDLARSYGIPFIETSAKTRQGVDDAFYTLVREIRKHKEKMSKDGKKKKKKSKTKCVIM
K-Ras G12C(GMP-PNP) binding to BRAF RBD, sequence (P62937 whole entry): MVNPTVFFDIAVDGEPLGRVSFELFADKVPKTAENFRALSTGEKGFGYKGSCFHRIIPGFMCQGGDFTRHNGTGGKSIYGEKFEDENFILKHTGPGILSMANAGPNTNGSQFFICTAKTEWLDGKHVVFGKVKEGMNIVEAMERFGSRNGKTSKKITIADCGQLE

The target of assay [4] is KRAS G12S binding to BRAF RBD (Homo sapiens (Human), UniProt P01116+P62937, G12S). The assay can be described thus: Ras-Raf disruption/FRET/MOA assay, KRAS G12S. The assay is classed as biochemical. An excerpt:
(§1) Note—The following protocol describes a procedure for monitoring disruption of K-Ras G12C(GMP-PNP) binding to BRAF^RBD by a compound of the invention. This protocol may also be executed substituting other Ras proteins or nucleotides.
(§2) The purpose of this biochemical assay was to measure the ability of test compounds to facilitate ternary complex formation between a nucleotide-loaded K-Ras isoform and Cyclophilin A; the resulting ternary complex disrupts binding to a BRAF^RBD construct, inhibiting K-Ras signaling through a RAF effector. Data is reported as IC50 values.
(§3) Compound was present in plate wells as a 10-point 3-fold dilution series starting at a final concentration of 30 μM. After incubation at 25° C. for 3 hours, a mixture of Anti-His Eu—W1024 and anti-GST allophycocyanin was then added to assay sample wells at final concentrations of 10 nM and 50 nM, respectively, and the reaction incubated for an additional 1.5 hours. […] Compounds that facilitate disruption of a K-Ras: RAF complex were identified as those eliciting a decrease in the TR-FRET ratio relative to DMSO control wells.

Assay [5] concerns the target KRAS G12V binding to BRAF RBD (Homo sapiens (Human), UniProt P01116+P62937, G12V). Briefly: Ras-Raf disruption/FRET/MOA assay, KRAS G12V. The format is biochemical. Particulars: read-out: KRAS G12V FRET IC50.
Text: as §1, §2, §3

Assay [6] has as its target KRAS WT binding to BRAF RBD (Homo sapiens (Human), UniProt P01116+P62937). The assay can be described thus: Ras-Raf disruption/FRET/MOA assay, KRAS WT. The assay is classed as biochemical.
Text: (§4) Disruption of B-Raf Ras-binding Domain (BRAF^RBD) Interaction with K-Ras by Compounds of the Invention (also called a FRET assay or an MOA assay)
as §1, §2
as §3, with “In assay buffer containing 25 mM HEPES pH 7.3, 0.002% Tween20, 0.1% BSA, 100 mM NaCl and 5 mM MgCl2, tagless Cyclophilin A, His6-K-Ras-GMPPNP, and GST-BRAF^RBD were combined in a 384-well assay plate at final concentrations of 25 μM, 12.5 nM and 50 nM, respectively. Compound was” for “Compound was”

Assay [7] concerns the target KRAS G13D binding to BRAF RBD (Homo sapiens (Human), UniProt P01116+P62937, G13D). The assay can be described thus: Ras-Raf disruption/FRET/MOA assay, KRAS G13D. The assay is classed as biochemical. In a few lines:
(§5)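 First, test compounds in a 10-point 3-fold series (30 μM final top) were incubated for 3 hours at 25° C with nucleotide-loaded Ras, cyclophilin A and a BRAF RBD construct. Next, Eu anti-His and allophycocyanin anti-GST detection reagents were added for 1.5 hours. Finally, IC50s were derived from loss of TR-FRET signal against DMSO.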

Assay [8] addresses KRAS Q61H binding to BRAF RBD (Homo sapiens (Human), UniProt P01116+P62937, Q61H). The assay can be described thus: Ras-Raf disruption/FRET/MOA assay, KRAS Q61H. The assay is classed as biochemical.
Text: as §4, §1, §2
as §3, with “In assay buffer containing 25 mM HEPES pH 7.3, 0.002% Tween20, 0.1% BSA, 100 mM NaCl and 5 mM MgCl2, tagless Cyclophilin A, His6-K-Ras-GMPPNP, and GST-BRAF^RBD were combined in a 384-well assay plate at final concentrations of 25 μM, 12.5 nM and 50 nM, respectively. Compound was” for “Compound was”

In assay [9] the target is NRAS G12C binding to BRAF RBD (Homo sapiens (Human), UniProt P01111+P62937, G12C). The assay can be described thus: Ras-Raf disruption/FRET/MOA assay, NRAS G12C. The format is biochemical. In a few lines:
as §5

The target of assay [10] is NRAS Q61R binding to BRAF RBD (Homo sapiens (Human), UniProt P01111+P62937, Q61R). The assay can be described thus: Ras-Raf disruption/FRET/MOA assay, NRAS Q61R. The format is biochemical.
NRAS Q61R binding to BRAF RBD, sequence (P01111 whole entry Q61R): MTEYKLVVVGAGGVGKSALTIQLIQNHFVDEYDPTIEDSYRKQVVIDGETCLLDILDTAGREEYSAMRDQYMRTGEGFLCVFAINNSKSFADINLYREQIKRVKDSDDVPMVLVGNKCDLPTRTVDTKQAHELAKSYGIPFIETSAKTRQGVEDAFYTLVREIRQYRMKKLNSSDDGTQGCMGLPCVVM
NRAS Q61R binding to BRAF RBD, sequence (P62937 whole entry): as the sequence (P62937 whole entry) above
Text: as §4, §1, §2
as §3, with “In assay buffer containing 25 mM HEPES pH 7.3, 0.002% Tween20, 0.1% BSA, 100 mM NaCl and 5 mM MgCl2, tagless Cyclophilin A, His6-K-Ras-GMPPNP, and GST-BRAF^RBD were combined in a 384-well assay plate at final concentrations of 25 μM, 12.5 nM and 50 nM, respectively. Compound was” for “Compound was”

Assay [11] has as its target NRAS Q61K binding to BRAF RBD (Homo sapiens (Human), UniProt P01111+P62937, Q61K). Briefly: Ras-Raf disruption/FRET/MOA assay, NRAS Q61K. The format is biochemical.
Text: as §4, §1, §2
as §3, with “In assay buffer containing 25 mM HEPES pH 7.3, 0.002% Tween20, 0.1% BSA, 100 mM NaCl and 5 mM MgCl2, tagless Cyclophilin A, His6-K-Ras-GMPPNP, and GST-BRAF^RBD were combined in a 384-well assay plate at final concentrations of 25 μM, 12.5 nM and 50 nM, respectively. Compound was” for “Compound was”

The target in assay [12] is NRAS WT binding to BRAF RBD (Homo sapiens (Human), UniProt P01111+P62937). Briefly: Ras-Raf disruption/FRET/MOA assay, NRAS WT. The format is biochemical.
NRAS WT binding to BRAF RBD, sequence (P01111 whole entry): as the sequence (P01111 whole entry Q61R) above, with R61Q counted along it
NRAS WT binding to BRAF RBD, sequence (P62937 whole entry): as the sequence (P62937 whole entry) above
Text: as §4, §1, §2
as §3, with “In assay buffer containing 25 mM HEPES pH 7.3, 0.002% Tween20, 0.1% BSA, 100 mM NaCl and 5 mM MgCl2, tagless Cyclophilin A, His6-K-Ras-GMPPNP, and GST-BRAF^RBD were combined in a 384-well assay plate at final concentrations of 25 μM, 12.5 nM and 50 nM, respectively. Compound was” for “Compound was”

The values that follow come from US20250195521A1 (Revolution Medicines, Inc., priority 2020, published 2025).

NRAS Q61K binding to BRAF RBD, sequence (P01111 whole entry Q61K): as the sequence (P01111 whole entry Q61R) above, with R61K counted along it
NRAS Q61K binding to BRAF RBD, sequence (P62937 whole entry): as the sequence (P62937 whole entry) above
KRAS G12V binding to BRAF RBD, sequence (P01116 other isoform, or with tags, fused parts or gaps G12V): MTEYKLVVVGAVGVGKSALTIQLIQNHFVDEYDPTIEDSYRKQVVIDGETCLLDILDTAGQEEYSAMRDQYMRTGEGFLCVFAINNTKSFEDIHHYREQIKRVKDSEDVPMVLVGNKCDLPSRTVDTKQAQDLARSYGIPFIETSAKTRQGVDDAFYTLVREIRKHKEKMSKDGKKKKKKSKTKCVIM
KRAS G12V binding to BRAF RBD, sequence (P62937 whole entry): as the sequence (P62937 whole entry) above
KRAS Q61H binding to BRAF RBD, sequence (P01116 other isoform, or with tags, fused parts or gaps Q61H): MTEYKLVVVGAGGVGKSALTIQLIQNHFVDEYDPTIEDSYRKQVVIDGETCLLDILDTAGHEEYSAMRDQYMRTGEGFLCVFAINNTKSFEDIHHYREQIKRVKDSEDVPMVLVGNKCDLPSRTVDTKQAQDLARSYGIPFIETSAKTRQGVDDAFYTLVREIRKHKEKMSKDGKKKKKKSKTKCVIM
KRAS Q61H binding to BRAF RBD, sequence (P62937 whole entry): as the sequence (P62937 whole entry) above
KRAS G12S binding to BRAF RBD, sequence (P01116 other isoform, or with tags, fused parts or gaps G12S): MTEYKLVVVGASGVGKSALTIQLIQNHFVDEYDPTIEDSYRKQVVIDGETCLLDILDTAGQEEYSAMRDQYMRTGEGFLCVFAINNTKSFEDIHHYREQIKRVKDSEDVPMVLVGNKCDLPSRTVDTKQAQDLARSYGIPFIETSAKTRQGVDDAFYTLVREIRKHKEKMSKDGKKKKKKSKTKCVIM
KRAS G12S binding to BRAF RBD, sequence (P62937 whole entry): as the sequence (P62937 whole entry) above
NRAS G12C binding to BRAF RBD, sequence (P01111 whole entry G12C): as the sequence (P01111 whole entry Q61R) above, with G12C, R61Q counted along it
NRAS G12C binding to BRAF RBD, sequence (P62937 whole entry): as the sequence (P62937 whole entry) above
KRAS WT binding to BRAF RBD, sequence (P01116 other isoform, or with tags, fused parts or gaps): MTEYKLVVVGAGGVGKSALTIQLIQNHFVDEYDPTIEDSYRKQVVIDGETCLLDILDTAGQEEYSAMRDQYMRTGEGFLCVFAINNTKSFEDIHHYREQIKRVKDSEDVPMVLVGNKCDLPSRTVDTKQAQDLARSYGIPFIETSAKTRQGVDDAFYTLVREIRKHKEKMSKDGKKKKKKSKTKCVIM
KRAS WT binding to BRAF RBD, sequence (P62937 whole entry, the tested form may be a part): as the sequence (P62937 whole entry) above
KRAS G13D binding to BRAF RBD, sequence (P01116 other isoform, or with tags, fused parts or gaps G13D): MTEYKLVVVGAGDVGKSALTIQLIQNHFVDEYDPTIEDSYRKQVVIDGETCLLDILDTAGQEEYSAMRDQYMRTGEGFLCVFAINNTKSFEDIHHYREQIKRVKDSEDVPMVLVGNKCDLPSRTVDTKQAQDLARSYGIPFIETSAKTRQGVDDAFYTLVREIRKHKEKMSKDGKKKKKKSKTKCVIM
KRAS G13D binding to BRAF RBD, sequence (P62937 whole entry): as the sequence (P62937 whole entry) above

As to `C=CC(=O)N(C)CC1CCN(C(=O)N(C)[C@H](C(=O)N[C@H]2Cc3nc(cs3)-c3ccc4c(c3)c(c(-c3cccnc3[C@H](C)OC)n4CC)CC(C)(C)COC(=O)[C@@H]3CCCN(N3)C2=O)C(C)C)CC1` (atropisomer, axis not shown) [Compound A629], the EC50 (in general, the concentration that produces a half-maximal response) in assay [1] is below 5 µM. The IC50 (in general, the concentration that inhibits the measured activity by half) in assay [2] was below 0.01 µM; in assay [3], 0.01 to 0.1 µM; in assay [4], 0.01 to 0.1 µM; in [5], 0.01 to 0.1 µM; in [6] it was 0.01 to 0.1 µM; in [7], 0.1 to 1 µM. The IC50 in [8], in assay [9], in [10], in assay [11] and in [12] was 0.01 to 0.1 µM each time.
